Non-standard residues stand in square brackets, D forms with d. Residues, ends and D or L forms follow the SMILES beside them. Phe(4-Cl) = N[C@@H](Cc1ccc(Cl)cc1)C(=O)O; 2Nal = N[C@@H](Cc1ccc2ccccc2c1)C(=O)O
Target: Bcl-2-like protein 1 (Homo sapiens, UniProt Q07817)
Experiment: Binding affinity to recombinant Bcl-XL expressed in Escherichia coli BL21 by fluorescence polarization assay

Chain of Bcl-2-like protein 1 (Q07817 whole entry): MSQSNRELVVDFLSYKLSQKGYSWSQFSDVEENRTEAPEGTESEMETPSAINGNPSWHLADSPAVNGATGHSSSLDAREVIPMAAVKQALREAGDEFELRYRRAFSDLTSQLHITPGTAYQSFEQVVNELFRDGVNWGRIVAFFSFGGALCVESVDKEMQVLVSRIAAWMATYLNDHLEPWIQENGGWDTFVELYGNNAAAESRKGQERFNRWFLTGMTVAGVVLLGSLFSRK

Point of comparison: CC[C@H](C)[C@H](NC(=O)[C@H](C)NC(=O)[C@H](CC(C)C)NC(=O)[C@H](CCC(N)=O)NC(=O)[C@H](CCCN=C(N)N)NC(=O)CNC(=O)[C@@H](NC(=O)[C@H](CCC(N)=O)NC(=O)CN)C(C)C)C(=O)N[C@@H](Cc1ccc2ccccc2c1)C(=O)NCC(=O)N[C@@H](CC(=O)O)C(=O)N[C@@H](CC(=O)O)C(=O)N[C@H](C(=O)N[C@@H](CC(N)=O)C(=O)N[C@@H](CCCN=C(N)N)C(=O)O)[C@@H](C)CC, EC50 1300 nM. Against it:
- CC[C@H](C)[C@H](NC(=O)[C@H](C)NC(=O)[C@H](CC(C)C)NC(=O)[C@H](CCC(N)=O)NC(=O)[C@H](CCCNC(=N)N)NC(=O)CNC(=O)[C@@H](NC(=O)[C@H](CCC(N)=O)NC(=O)CN)C(C)C)C(=O)N[C@@H](C)C(=O)NCC(=O)N[C@@H](CC(=O)O)C(=O)N[C@@H](CC(=O)O)C(=O)N[C@H](C(=O)N[C@@H](CC(N)=O)C(=O)N[C@@H](CCCNC(=N)N)C(=O)O)[C@@H](C)CC — 13-fold higher, 17000 nM
- CC[C@H](C)[C@H](NC(=O)[C@H](C)NC(=O)[C@H](CC(C)C)NC(=O)[C@H](CCC(N)=O)NC(=O)[C@H](CCCN=C(N)N)NC(=O)CNC(=O)[C@@H](NC(=O)[C@H](CCC(N)=O)NC(=O)CN)C(C)C)C(=O)N[C@@H](Cc1cccc(Cl)c1)C(=O)NCC(=O)N[C@@H](CC(=O)O)C(=O)N[C@@H](CC(=O)O)C(=O)N[C@H](C(=O)N[C@@H](CC(N)=O)C(=O)N[C@@H](CCCN=C(N)N)C(=O)O)[C@@H](C)CC — 6.5-fold lower, 200 nM
- CCCC[C@H](NC(=O)[C@@H](NC(=O)[C@H](C)NC(=O)[C@H](CC(C)C)NC(=O)[C@H](CCC(N)=O)NC(=O)[C@H](CCCN=C(N)N)NC(=O)CNC(=O)[C@@H](NC(=O)[C@H](CCC(N)=O)NC(=O)CN)C(C)C)[C@@H](C)CC)C(=O)NCC(=O)N[C@@H](CC(=O)O)C(=O)N[C@@H](CC(=O)O)C(=O)N[C@H](C(=O)N[C@@H](CC(N)=O)C(=O)N[C@@H](CCCN=C(N)N)C(=O)O)[C@@H](C)CC — 2-fold lower, 655 nM
- CC[C@H](C)[C@H](NC(=O)[C@H](C)NC(=O)[C@H](CC(C)C)NC(=O)[C@H](CCC(N)=O)NC(=O)[C@H](CCCNC(=N)N)NC(=O)CNC(=O)[C@@H](NC(=O)[C@H](CCC(N)=O)NC(=O)CN)C(C)C)C(=O)N[C@H](C(=O)NCC(=O)N[C@@H](CC(=O)O)C(=O)N[C@@H](CC(=O)O)C(=O)N[C@@H](Cc1cnc[nH]1)C(=O)N[C@@H](CC(N)=O)C(=O)N[C@@H](CCCNC(=N)N)C(=O)O)[C@@H](C)CC — 3.9-fold higher, 5120 nM
- CC[C@H](C)[C@H](NC(=O)[C@H](C)NC(=O)[C@H](CC1CCCCC1)NC(=O)[C@H](CCC(N)=O)NC(=O)[C@H](CCCNC(=N)N)NC(=O)CNC(=O)[C@@H](NC(=O)[C@H](CCC(N)=O)NC(=O)CN)C(C)C)C(=O)N[C@H](C(=O)NCC(=O)N[C@@H](CC(=O)O)C(=O)N[C@@H](CC(=O)O)C(=O)N[C@H](C(=O)N[C@@H](CC(N)=O)C(=O)N[C@@H](CCCNC(=N)N)C(=O)O)[C@@H](C)CC)[C@@H](C)CC — 5.9-fold lower, 219 nM
- CC[C@H](C)[C@H](NC(=O)[C@H](C)NC(=O)[C@H](CC(C)C)NC(=O)[C@H](CCC(N)=O)NC(=O)[C@H](CCCN=C(N)N)NC(=O)CNC(=O)[C@@H](NC(=O)[C@H](CCC(N)=O)NC(=O)CN)C(C)C)C(=O)N[C@H](C(=O)NCC(=O)N[C@@H](CC(=O)O)C(=O)N[C@@H](CC(=O)O)C(=O)N[C@@H](C)C(=O)N[C@@H](CC(N)=O)C(=O)N[C@@H](CCCN=C(N)N)C(=O)O)[C@@H](C)CC — 72-fold higher, 93000 nM
- CC[C@H](C)[C@H](NC(=O)[C@H](C)NC(=O)[C@H](CC(C)C)NC(=O)[C@H](CCC(N)=O)NC(=O)[C@H](CCCN=C(N)N)NC(=O)CNC(=O)[C@@H](NC(=O)[C@H](CCC(N)=O)NC(=O)CN)C(C)C)C(=O)N[C@H](C(=O)NCC(=O)N[C@@H](CC(=O)O)C(=O)N[C@@H](CC(=O)O)C(=O)N[C@@H](Cc1ccc(I)cc1)C(=O)N[C@@H](CC(N)=O)C(=O)N[C@@H](CCCN=C(N)N)C(=O)O)[C@@H](C)CC — 29-fold lower, 45 nM
- CC[C@H](C)[C@H](NC(=O)[C@H](C)NC(=O)[C@H](CCc1ccccc1)NC(=O)[C@H](CCC(N)=O)NC(=O)[C@H](CCCNC(=N)N)NC(=O)CNC(=O)[C@@H](NC(=O)[C@H](CCC(N)=O)NC(=O)CN)C(C)C)C(=O)N[C@H](C(=O)NCC(=O)N[C@@H](CC(=O)O)C(=O)N[C@@H](CC(=O)O)C(=O)N[C@H](C(=O)N[C@@H](CC(N)=O)C(=O)N[C@@H](CCCNC(=N)N)C(=O)O)[C@@H](C)CC)[C@@H](C)CC — 5.8-fold lower, 225 nM
- CC[C@H](C)[C@H](NC(=O)[C@H](C)NC(=O)[C@H](CC(C)C)NC(=O)[C@H](CCC(N)=O)NC(=O)[C@H](CCCN=C(N)N)NC(=O)CNC(=O)[C@@H](NC(=O)[C@H](CCC(N)=O)NC(=O)CN)C(C)C)C(=O)N[C@@H](Cc1cccc2ccccc12)C(=O)NCC(=O)N[C@@H](CC(=O)O)C(=O)N[C@@H](CC(=O)O)C(=O)N[C@H](C(=O)N[C@@H](CC(N)=O)C(=O)N[C@@H](CCCN=C(N)N)C(=O)O)[C@@H](C)CC — 4.3-fold lower, 299 nM
- CC[C@H](C)[C@H](NC(=O)[C@H](CC(=O)O)NC(=O)[C@H](CC(=O)O)NC(=O)CNC(=O)[C@H](Cc1ccc(O)cc1)N(C)C(=O)[C@@H](NC(=O)[C@H](C)NC(=O)[C@H](CC(C)C)NC(=O)[C@H](CCC(N)=O)NC(=O)[C@H](CCCNC(=N)N)NC(=O)CNC(=O)[C@@H](NC(=O)[C@H](CCC(N)=O)NC(=O)CN)C(C)C)[C@@H](C)CC)C(=O)N[C@@H](CC(N)=O)C(=O)N[C@@H](CCCNC(=N)N)C(=O)O — 2.8-fold higher, 3620 nM
- CC[C@H](C)[C@H](NC(=O)[C@H](C)NC(=O)[C@H](CC(C)C)NC(=O)[C@H](CCC(N)=O)NC(=O)[C@H](CCCN=C(N)N)NC(=O)CNC(=O)[C@@H](NC(=O)[C@H](CCC(N)=O)NC(=O)CN)C(C)C)C(=O)N[C@H](C(=O)NCC(=O)N[C@@H](CC(=O)O)C(=O)N[C@@H](CC(=O)O)C(=O)N[C@@H](Cc1cccc2ccccc12)C(=O)N[C@@H](CC(N)=O)C(=O)N[C@@H](CCCN=C(N)N)C(=O)O)[C@@H](C)CC — 17-fold lower, 77 nM
- CC[C@H](C)[C@H](NC(=O)[C@H](C)NC(=O)[C@H](CC(C)C)NC(=O)[C@H](CCC(N)=O)NC(=O)[C@H](CCCNC(=N)N)NC(=O)CNC(=O)[C@@H](NC(=O)[C@H](CCC(N)=O)NC(=O)CN)C(C)C)C(=O)N[C@H](C(=O)NCC(=O)N[C@@H](CC(=O)O)C(=O)N[C@@H](CC(=O)O)C(=O)N[C@@H](CC1CCCCC1)C(=O)N[C@@H](CC(N)=O)C(=O)N[C@@H](CCCNC(=N)N)C(=O)O)[C@@H](C)CC — 22-fold lower, 58 nM
- CC[C@H](C)[C@H](NC(=O)[C@H](C)NC(=O)[C@H](CC(C)C)NC(=O)[C@H](CCC(N)=O)NC(=O)[C@H](CCCN=C(N)N)NC(=O)CNC(=O)[C@@H](NC(=O)[C@H](CCC(N)=O)NC(=O)CN)C(C)C)C(=O)N[C@H](C(=O)NCC(=O)N[C@@H](CC(=O)O)C(=O)N[C@@H](CC(=O)O)C(=O)N[C@@H](Cc1ccc2ccccc2c1)C(=O)N[C@@H](CC(N)=O)C(=O)N[C@@H](CCCN=C(N)N)C(=O)O)[C@@H](C)CC — 10-fold lower, 125 nM
- CC[C@H](C)[C@H](NC(=O)[C@H](C)NC(=O)[C@H](Cc1ccc2ccccc2c1)NC(=O)[C@H](CCC(N)=O)NC(=O)[C@H](CCCNC(=N)N)NC(=O)CNC(=O)[C@@H](NC(=O)[C@H](CCC(N)=O)NC(=O)CN)C(C)C)C(=O)N[C@H](C(=O)NCC(=O)N[C@@H](CC(=O)O)C(=O)N[C@@H](CC(=O)O)C(=O)N[C@@H](Cc1ccc(Cl)cc1)C(=O)N[C@@H](CC(N)=O)C(=O)N[C@@H](CCCNC(=N)N)C(=O)O)[C@@H](C)CC (H-GQVGRQ[2Nal]AIIGDD[Phe(4-Cl)]NR-OH) — 25-fold lower, 53 nM
- CC[C@H](C)[C@H](NC(=O)[C@H](C)NC(=O)[C@H](Cc1cccnc1)NC(=O)[C@H](CCC(N)=O)NC(=O)[C@H](CCCN=C(N)N)NC(=O)CNC(=O)[C@@H](NC(=O)[C@H](CCC(N)=O)NC(=O)CN)C(C)C)C(=O)N[C@H](C(=O)NCC(=O)N[C@@H](CC(=O)O)C(=O)N[C@@H](CC(=O)O)C(=O)N[C@H](C(=O)N[C@@H](CC(N)=O)C(=O)N[C@@H](CCCN=C(N)N)C(=O)O)[C@@H](C)CC)[C@@H](C)CC — 7.5-fold higher, 9740 nM
- CC[C@H](C)[C@H](NC(=O)[C@H](C)NC(=O)[C@H](CC(C)C)NC(=O)[C@H](CCC(N)=O)NC(=O)[C@H](CCCNC(=N)N)NC(=O)CNC(=O)[C@@H](NC(=O)[C@H](CCC(N)=O)NC(=O)CN)C(C)C)C(=O)N[C@H](C(=O)NCC(=O)N[C@@H](CC(=O)O)C(=O)N[C@@H](CC(=O)O)C(=O)N[C@@H](CCC(=O)O)C(=O)N[C@@H](CC(N)=O)C(=O)N[C@@H](CCCNC(=N)N)C(=O)O)[C@@H](C)CC — higher, > 10000 nM
- CCCC[C@H](NC(=O)[C@H](CC(=O)O)NC(=O)[C@H](CC(=O)O)NC(=O)CNC(=O)[C@@H](NC(=O)[C@@H](NC(=O)[C@H](C)NC(=O)[C@H](CC(C)C)NC(=O)[C@H](CCC(N)=O)NC(=O)[C@H](CCCN=C(N)N)NC(=O)CNC(=O)[C@@H](NC(=O)[C@H](CCC(N)=O)NC(=O)CN)C(C)C)[C@@H](C)CC)[C@@H](C)CC)C(=O)N[C@@H](CC(N)=O)C(=O)N[C@@H](CCCN=C(N)N)C(=O)O — 11-fold lower, 118 nM
- CC[C@H](C)[C@H](NC(=O)[C@H](C)NC(=O)[C@H](Cc1cccc2ccccc12)NC(=O)[C@H](CCC(N)=O)NC(=O)[C@H](CCCNC(=N)N)NC(=O)CNC(=O)[C@@H](NC(=O)[C@H](CCC(N)=O)NC(=O)CN)C(C)C)C(=O)N[C@H](C(=O)NCC(=O)N[C@@H](CC(=O)O)C(=O)N[C@@H](CC(=O)O)C(=O)N[C@H](C(=O)N[C@@H](CC(N)=O)C(=O)N[C@@H](CCCNC(=N)N)C(=O)O)[C@@H](C)CC)[C@@H](C)CC — higher, > 10000 nM
- CC[C@H](C)[C@H](NC(=O)[C@H](C)NC(=O)[C@H](C)NC(=O)[C@H](CCC(N)=O)NC(=O)[C@H](CCCN=C(N)N)NC(=O)CNC(=O)[C@@H](NC(=O)[C@H](CCC(N)=O)NC(=O)CN)C(C)C)C(=O)N[C@H](C(=O)NCC(=O)N[C@@H](CC(=O)O)C(=O)N[C@@H](CC(=O)O)C(=O)N[C@H](C(=O)N[C@@H](CC(N)=O)C(=O)N[C@@H](CCCN=C(N)N)C(=O)O)[C@@H](C)CC)[C@@H](C)CC — 210-fold higher, 270000 nM
- CC[C@H](C)[C@H](NC(=O)[C@H](C)NC(=O)[C@H](CC(C)C)NC(=O)[C@H](CCC(N)=O)NC(=O)[C@H](CCCNC(=N)N)NC(=O)CNC(=O)[C@@H](NC(=O)[C@H](CCC(N)=O)NC(=O)CN)C(C)C)C(=O)N[C@H](C(=O)NCC(=O)N[C@@H](CC(=O)O)C(=O)N[C@@H](CC(=O)O)C(=O)N[C@@H](Cc1ccc(-c2ccccc2)cc1)C(=O)N[C@@H](CC(N)=O)C(=O)N[C@@H](CCCNC(=N)N)C(=O)O)[C@@H](C)CC — 4.9-fold lower, 267 nM
